Results reported in BindingDB's records for doi:10.7270/Q2H993NJ (University of Pittsburgh, 2010).
“And” between values parts separate entries of the source, which are not always exact repeats. Equal values may be shown once.

Biological target: Furin (Homo sapiens, UniProt P09958)
Experiment: human furin inhibition, concentration series – biochemical, fluorescence intensity, IC50, dose response (AID 463182)

Chain of Furin (P09958 whole entry): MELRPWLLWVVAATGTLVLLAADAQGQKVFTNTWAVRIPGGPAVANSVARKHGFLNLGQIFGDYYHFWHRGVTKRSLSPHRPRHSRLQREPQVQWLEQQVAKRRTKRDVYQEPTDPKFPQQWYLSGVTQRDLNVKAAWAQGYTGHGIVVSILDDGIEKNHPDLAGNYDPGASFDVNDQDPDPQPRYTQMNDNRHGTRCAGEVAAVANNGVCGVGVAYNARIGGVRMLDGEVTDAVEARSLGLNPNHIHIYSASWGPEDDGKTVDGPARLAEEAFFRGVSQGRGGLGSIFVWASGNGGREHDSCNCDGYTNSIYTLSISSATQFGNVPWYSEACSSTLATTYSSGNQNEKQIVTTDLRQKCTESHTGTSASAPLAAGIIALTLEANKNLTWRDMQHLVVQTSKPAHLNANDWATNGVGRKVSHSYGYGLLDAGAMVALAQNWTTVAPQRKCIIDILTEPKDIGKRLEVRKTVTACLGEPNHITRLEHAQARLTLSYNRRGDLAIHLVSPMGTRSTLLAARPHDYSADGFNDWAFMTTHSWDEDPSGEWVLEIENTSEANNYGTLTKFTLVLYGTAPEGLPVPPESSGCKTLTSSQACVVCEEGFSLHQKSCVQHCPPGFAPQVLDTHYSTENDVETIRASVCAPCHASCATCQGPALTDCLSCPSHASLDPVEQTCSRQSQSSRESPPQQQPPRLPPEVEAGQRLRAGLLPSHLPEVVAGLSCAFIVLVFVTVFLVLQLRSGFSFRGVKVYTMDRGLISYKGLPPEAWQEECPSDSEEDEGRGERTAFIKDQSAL

| SMILES | IC50 |
| --- | --- |
| CCN1CCS/C1=C\C=C\C1=[N+](CC)CCS1 [3-ethyl-2-[(E,3E)-3-(3-ethylthiazolidin-2-ylidene)prop-1-enyl]-2-thiazolin-3-ium;iodide] | 33.8 µM and 31.5 µM |
| CC1(C)CC(=O)C(=CNn2cnc3ccccc3c2=O)C(=O)C1 [5,5-Dimethyl-2-[(4-oxo-4H-quinazolin-3-ylamino)-methylene]-cyclohexane-1,3-dione] | > 50 µM |
| Cc1ccccc1-n1c(O)c(C=Nc2ccc(N(C)C)cc2)c(=O)[nH]c1=O [SMR000102641] | > 50 µM |
| CSc1nc(N)c(N=Nc2ccc([As](=O)(O)O)cc2)c(O)n1 [[4-[(2Z)-2-(4-azanyl-2-methylsulfanyl-6-oxidanylidene-pyrimidin-5-ylidene)hydrazinyl]phenyl]arsonic acid] | > 50 µM |
| CCCOP(=O)(c1ccc(N(C)C)cc1)C(Nc1ccccc1)c1ccc(N(C)C)cc1 (centres undefined) | > 50 µM |
| Cc1cccc(C=C2SC(NN=C3CC4CCC3(C)C4(C)C)=NC2=O)c1 (centres undefined) [SMR000159419] | > 50 µM |
| Cc1cccc(-n2c(O)c(C=CC=Nc3ccccc3)c(=O)[nH]c2=O)c1 [(5Z)-1-(3-methylphenyl)-5-[(E)-3-phenylazanylprop-2-enylidene]-1,3-diazinane-2,4,6-trione] | > 50 µM |
| CC1(C)CC(=O)C(=CNc2cccnc2)C(=O)C1 | > 50 µM |
| Cc1cccc(NC=C2C(=O)CC(C)(C)CC2=O)n1 | > 50 µM |
